{"source": "patent US20160220581A1", "about": "“CHROMIUM COMPOSITIONS FOR THE TREATMENT OR PREVENTION OF DIABETIC RETINOPATHY” (JDS Therapeutics, LLC, priority 2015, published 2016)", "assay_type_in_all_cases": "in vivo, rat", "key": {"diabetic retinopathy": {"tested_on": "diabetic retinopathy", "assay": "Co-administration of chromium histidinate with insulin or metformin in diabetic retinopathy (Example 10)", "experimental": "General procedures are conducted as described above. Co-administration of chromium histidinate with insulin or metformin is performed. Retinal biomarker(s) are extracted from the retinal cellular lysate and characterized by liquid chromatography-mass spectrometry."}, "retinal photoreceptors": {"tested_on": "retinal photoreceptors", "assay": "Free radical oxidation of retinal photoreceptors (Example 4)", "settings": "versus other chromium complexes at equivalent total dosages of chromium", "experimental": "(§1) General procedures are conducted as described above. Retinal lipids are extracted from the retinal cellular lysate and characterized by liquid chromatography-mass spectrometry."}, "[1]": {"tested_on": "glucose transporter 1 (GLUT 1)", "assay": "Western blot of retina GLUT 1 expression in diabetic rats", "settings": "diabetic rats treated with CrHis, P<0.05, FIG. 1 Panel A", "experimental": "(§2) Diabetes was induced with streptozotocin [(STZ), 55 mg/kg] by intraperitoneal injection in male Long-Evans rats. Three weeks after STZ injection, rats were divided into four groups, namely, untreated normal controls, normal rats receiving CrHis (110 μg/kg/day); untreated diabetics and diabetics treated with CrHis (110 μg/kg/day) orally for 12 weeks.\n(§3) After rats were sacrificed, both eyes were either (1) enucleated and frozen at −80° C. for the measurements of the target biomarker(s) and/or other analysis or (2) are examined immediately post-sacrifice for morphological changes. […]\n(§4) Equal amounts of protein (50 μg) were electrophoresed and subsequently transferred onto a nitrocellulosemembrane (Schleicher and Schuell Inc., Keene, N.H., USA). […] Bands were analyzed densitometrically using an image analysis system (Image J; National Institute of Health, Bethesda, USA).\n(§5) General procedures were conducted as described above. […] The retina MDA content was measured by high performance liquid chromatography (HPLC, Shimadzu, Tokyo, Japan) using a Shimadzu UV-vis SPD-10 AVP detector and a CTO-10 AS VP column in a mobile phase consisting of 30 mM KH2PO4 and methanol (82.5+17.5, v/v; pH 3.6) at a flow rate of 1.2 ml/min. Column effluents were monitored at 250 nm and the volume was 20 μl. […]\n(§6) Data are means of quadruplets of assays and expressed as relative to control (%). […]"}, "diabetic rats": {"tested_on": "diabetic rats", "assay": "CrHis supplementation in STZ-induced diabetic rats: body weight and blood/serum biochemical parameters", "experimental": "as §2\n(§7) Twenty eight Long Evans rats per experiment, aged 8 weeks with 250±20 g of body weight were used in these experiments. All the animals were kept and maintained under standard guidelines. The animals were kept and maintained at 22±2° C., humidity of 55%±5% and 12/12-hour light/dark cycle. The rats were weighed every week and at the end of the study. Blood sample was collected from the tail vein of each rat for the measurement of biochemical efficacy and safety markers.\n(§8) The CrHis was given in the water and administered at a concentration of 110 μg/kg bw/d) to get 9.16 μg elemental Cr (kg body/d), which is an equivalent dose of 614 μg Cr for a 70-kg adult human based on previous work. The Cr concentration of the water provided the control group was negligible (<1 μg/L). The water provided the Cr-supplemented group was initially prepared as a solution containing 3000 μg CrHis/L of water. The […] water was diluted to achieve the target Cr intake per group on the basis of measured water intake. To induce experimental diabetes, STZ was dissolved in citrate buffer (pH 4.5) and injected once intraperitoneally at a dose of 55 mg/kg to the remainder of the animals. A control group was given citrate buffer via intraperitoneal injection.\n(§9) Fourteen rats were treated with STZ (55 mg/kg body weight) through intraperitoneal injection. All rats were then fasted for 16 hour prior to treatment, but they had access to drinking water. The animals were divided into 4 groups: group I (Control) rats received citrate buffer intraperitoneally and isotonic saline, orally; group II (Control+CrHis) rats were administered chromium histidinate orally (110 μg/kg body weight) daily for a period of […]; group III (Diabetic) rats received single injection of STZ (55 mg/kg body weight) intraperitoneally and were also given isotonic saline, orally for the duration of the study; group IV (Diabetic+CrHis) diabetic rats were administered chromium orally as chromium histidinate (110 μg/kg body weight) daily for a period of 12 weeks after the induction of diabetes.\n(§10) Body weight and blood glucose concentrations were monitored weekly. Blood was collected from the tail vein of the rats. Blood glucose was determined by one touch glucometer (ACCU-Check Active, Roche Diagnostics, Mannheim, Germany) after the injection for 72 h. Before STZ injection, glucose concentrations of study rats and controls were measured and compared.\n(§11) Blood samples were centrifuged at 3000×g for 10 min and sera were separated. Serum glucose concentrations were measured by using ACCU-Chek Active (Roche Diagnostics, Basel, Switzerland). Serum insulin levels were measured with the Rat Insulin Kit (Linco Research, St Charles, Mo.) by enzyme-linked immunosorbent assay (ELISA, Elx-800, BioTek Instruments, Winooski, Vt.). Serum concentrations of total cholesterol (TC) were measured by diagnostic kits (Sigma Diagnostics, St Louis, Mo.). Blood glycosylated haemoglobin (HbAlc) was also measured by routine kit (Alfabiotech, Milano, Italy) using the autoanalyzer.\nData were analyzed statistically using one-way ANOVA. In the analyses for the biomarker(s), the repeated statement was added in the general linear model. The group differences were attained by the Fisher's multiple comparison test [Statistical Package for the Social Sciences (SPSS)]. A P value of less than 0.05 was considered significant."}, "[2]": {"tested_on": "glucose transporter 3 (GLUT3)", "assay": "Western blot of retina GLUT3 expression in diabetic rats", "settings": "diabetic rats treated with CrHis, P<0.05, FIG. 1 Panel B", "experimental": "as §2, §3, §4, §5, §6"}, "retinal lipid oxidation": {"tested_on": "retinal lipid oxidation", "assay": "Retinal lipid oxidation by LC-MS of retinal lysate (Example 3)", "settings": "versus other chromium complexes at equivalent total dosages of chromium", "experimental": "as §1"}, "[3]": {"tested_on": "retinal capillary basement membrane", "assay": "Retinal capillary basement membrane thickening (Example 7)", "settings": "versus other chromium complexes at equivalent total dosages of chromium", "experimental": "General procedures are conducted as described above. Retinal capillary basement membrane thickening is characterized by physical examination of the eye using standard techniques."}, "retinal hard exudates": {"tested_on": "retinal hard exudates", "assay": "Retinal hard exudates (Example 9)", "settings": "versus other chromium complexes at equivalent total dosages of chromium", "experimental": "General procedures are conducted as described above. Retinal hard exudates are extracted from the retinal cellular lysate and characterized by liquid chromatography-mass spectrometry."}, "normal rats": {"tested_on": "normal rats", "assay": "CrHis supplementation in normal rats: body weight and blood/serum biochemical parameters", "settings": "CrHis group, CrHis 110 μg/kg/day orally", "experimental": "as §2, §7, §8, §9, §10, §11\nData were analyzed statistically using one-way ANOVA. […]"}, "[4]": {"tested_on": "hemoglobin glycation and/or retinal protein glycation", "assay": "Hemoglobin glycation and retinal protein glycation (Example 5)", "settings": "versus other chromium complexes at equivalent total dosages of chromium", "experimental": "General procedures are conducted as described above. […]. Retinal proteins are extracted from the retinal cellular lysate and characterized by liquid chromatography-mass spectrometry and/or Western Blotting."}, "retina of diabetic rats": {"tested_on": "retina of diabetic rats", "assay": "Histologic examination of retina in diabetic rats", "experimental": "as §2\nAfter the eye extirpation, tissue (retina) of each rat was also examined grossly. The tissue was removed for histologic study, washed with normal saline, and immersion-fixed in 10% buffered formalin immediately upon removal. They were gradually dehydrated, embedded in paraffin, cut into 5-μm sections, and stained with hematoxylin and eosin for histologic examination according to standard procedures.\nGeneral procedures were conducted as described above. Retinas were highly organized in the normal (control) rats, with intact layers. The retinas were disorganized in the diabetic rats with impaired layers. […] Similar experiments are conducted with other chromium species such as chromium nicotinate and chromium picolinate."}, "retinal microangiopathy": {"tested_on": "retinal microangiopathy", "assay": "Retinal microangiopathy (Example 8)", "settings": "versus other chromium complexes at equivalent total dosages of chromium", "experimental": "General procedures are conducted as described above. Retinal microangiopathy is characterized using standard ophthalomogic techniques."}, "[5]": {"tested_on": "retinal lipoprotein membrane content", "assay": "Loss of retinal lipoprotein membrane content (Example 6)", "settings": "versus other chromium complexes at equivalent total dosages of chromium", "experimental": "as §1"}, "retina insulin": {"tested_on": "retina insulin", "assay": "Western blot of retina insulin expression in diabetic rats", "settings": "diabetic rats treated with CrHis, P<0.05, FIG. 1 Panel C", "experimental": "as §2, §3, §4, §5, §6"}, "[6]": {"tested_on": "retina malondialdehyde (MDA)", "assay": "Retina MDA content by HPLC in diabetic rats", "settings": "diabetic rats treated with CrHis, FIG. 1 Panel D", "experimental": "as §2\nGeneral procedures were conducted as described above. After rats were sacrificed, both eyes were enucleated and frozen at −80° C. for the measurements of MDA, GLUT 1, GLUT3 and insulin. The retina MDA content was measured by high performance liquid chromatography (HPLC, Shimadzu, Tokyo, Japan) using a Shimadzu UV-vis SPD-10 AVP detector and a CTO-10 AS VP column in a mobile phase consisting of 30 mM KH2PO4 and methanol (82.5+17.5, v/v; pH 3.6) at a flow rate of 1.2 ml/min. Column effluents were monitored at 250 nm and the volume was 20 μl. The retina homogenate (10%, w/v) was prepared in 10 mM phosphate buffer (pH 7.4), centrifuged at 13,000×g for 10 min at 4° C., and the supernatant was collected and stored at −80° C. for MDA analysis."}, "[7]": {"settings": "STZ + CrHis group, diabetic rats, CrHis 110 μg/kg/day orally for 12 weeks"}, "[8]": {"settings": "diabetic retinopathy rats treated with CrHis"}}, "data": [{"substance": "chromium histidinate [CrHis]", "values": [{"measurement": "Effect in treating diabetic retinopathy", "setting": "diabetic retinopathy", "result": "synergistic effect"}, {"measurement": "Reducing the free radical oxidation of retinal photoreceptors", "setting": "retinal photoreceptors", "result": "more efficacious"}, {"measurement": "Expression of GLUT1 in the retina", "setting": "[1]", "result": "reversed these changes to near control levels"}, {"measurement": "Body weight, change in words", "setting": "diabetic rats; CrHis-treated diabetic rats compared to the untreated diabetic group, P<0.001", "result": "significantly increased"}, {"measurement": "Body weight", "setting": "diabetic rats; [7]", "result": 250, "unit": "g"}, {"measurement": "Glucose", "setting": "diabetic rats; [7]", "result": 290, "unit": "mg/dL"}, {"measurement": "Glycosylated hemoglobin", "setting": "diabetic rats; [7]", "result": 0.45, "unit": "mg/g"}, {"measurement": "Insulin", "setting": "diabetic rats; [7]", "result": 25.0, "unit": "μU/mL"}, {"measurement": "Total cholesterol", "setting": "diabetic rats; [7]", "result": 218, "unit": "mg/dL"}, {"measurement": "Blood glucose level, change in words", "setting": "diabetic rats; [8]", "result": "significant increases"}, {"measurement": "HbAlc level, change in words", "setting": "diabetic rats; [8]", "result": "significant increases"}, {"measurement": "Insulin level, change in words", "setting": "diabetic rats; [8]", "result": "significant increases"}, {"measurement": "Expression of GLUT3 in the retina", "setting": "[2]", "result": "reversed these changes to near control levels"}, {"measurement": "Reducing the retinal lipid oxidation", "setting": "retinal lipid oxidation", "result": "more efficacious"}, {"measurement": "Preventing retinal capillary basement membrane from thickening", "setting": "[3]", "result": "more efficacious"}, {"measurement": "Reducing hard exudates", "setting": "retinal hard exudates", "result": "more efficacious"}, {"measurement": "Body weight", "setting": "normal rats", "result": 340, "unit": "g"}, {"measurement": "Glucose", "setting": "normal rats", "result": 100, "unit": "mg/dL"}, {"measurement": "Glycosylated hemoglobin", "setting": "normal rats", "result": 0.20, "unit": "mg/g"}, {"measurement": "Insulin", "setting": "normal rats", "result": 50.3, "unit": "μU/mL"}, {"measurement": "Total cholesterol", "setting": "normal rats", "result": 80, "unit": "mg/dL"}, {"measurement": "Reducing hemoglobin glycation and/or retinal protein glycation", "setting": "[4]", "result": "more efficacious"}, {"measurement": "Retina organization (histology)", "setting": "retina of diabetic rats; CrHis group compared to the diabetes group", "result": "surprisingly improved"}, {"measurement": "Reducing the physiological effects of diabetic retinopathy", "setting": "retina of diabetic rats; versus other chromium complexes at equivalent total dosages of chromium", "result": "more efficacious"}, {"measurement": "Decreasing microangiopathy", "setting": "retinal microangiopathy", "result": "more efficacious"}, {"measurement": "Decreasing the loss of retinal lipoprotein membrane content", "setting": "[5]", "result": "more efficacious"}, {"measurement": "Expression of insulin in the retina", "setting": "retina insulin", "result": "reversed these changes to near control levels"}, {"measurement": "MDA expression in retina", "setting": "[6]", "result": "statistically significant reduction"}]}]}
